# Patent publication US12257237B2 (priority 2017, dated 2025)
# Test system: DD013 dedifferentiated liposarcoma
# Test: Antitumour activity in DD013 dedifferentiated liposarcoma xenograft model
# Type: in vivo, Athymic nude mice
# Details: for optimal T/C: day 50
# Description: Experiments were performed with female Athymic nude mice, 9-10 weeks old obtained from Harlan Laboratories (Udine, Italy). They were maintained under Specific Pathogen Free conditions with constant temperature and humidity, according to the institutional guidelines.
# Tumour growth mice was monitored two/three times a week (depending on tumour growth rate, to avoid unnecessary stress to the animals) by Vernier caliper. Mice were sacrificed when tumour reached a mean weight of 2±0.5 gr. The antitumour activity will be expressed as T/C %, where T and C were the mean tumour weight of treated and control groups, respectively. Mice were monitored daily and weighted at least two times a week. Tolerability was evaluated on the basis of body weight loss (BWL) and clinical observation.
# Statistical analysis was performed with GraphPad Prism version 6.01 software (GraphPad software, Inc., La Jolla, CA, USA). ANOVA test was performed to evaluate if there were statistically significant differences between treated and control groups.
# Briefly, xenografts were obtained by transplanting 3-4 mm tumour fragments s.c. in the flanks of mice. The growing tumour masses were measured with the aid of a Vernier caliper, and the tumour weights (TW, 1 mm^3=1 mg) were calculated by the formula: length×(width) 2/2. When tumour load achieved about 200-400 mg, mice were randomized into the experimental groups.
smiles,measurement,setting,value
"Cn1c(CCCCCCC(=O)NO)nc2cc(N(CCCl)CCCl)ccc21 [EDO-S101, 7-(5-(bis(2-chloroethyl)amino)-1-methyl-1H-benzo[d]imidazol-2-yl)-N-hydroxyheptanamide]",optimal T/C,40 mg/kg i.v. q7dx3,27.2%
same,effect on tumour growth,"40 mg/kg q7dx3, first cycle","reduced tumour growth, but without a complete arrest"
same,effect of second cycle on tumour growth,"40 mg/kg, second cycle from day 50",promoted tumour growth arrest
same,optimal T/C,60 mg/kg i.v. q7dx3,14%
same,effect on tumour growth,"60 mg/kg, first cycle",induced tumour growth arrest
same,effect of second cycle on tumour growth,"60 mg/kg, second cycle from day 72",sustained tumour growth arrest
same,optimal T/C,80 mg/kg i.v. single dose,18%
same,effect on tumour growth,"80 mg/kg, first cycle",induced tumour growth arrest
same,effect of second cycle on tumour growth,"80 mg/kg, second cycle from day 58",Tumour growth arrest was also observed
same,"DD0113 tumour weight, Mean","EDO40: EDO-S101 40 mg/kg q7dx3, day 23 from inoculum",198.6 mg
same,"DD0113 tumour weight, Mean","EDO40: EDO-S101 40 mg/kg q7dx3, day 26 from inoculum",283.6 mg
same,"DD0113 tumour weight, Mean","EDO40: EDO-S101 40 mg/kg q7dx3, day 29 from inoculum",319.2 mg
same,"DD0113 tumour weight, Mean","EDO40: EDO-S101 40 mg/kg q7dx3, day 33 from inoculum",394.4 mg
same,"DD0113 tumour weight, Mean","EDO40: EDO-S101 40 mg/kg q7dx3, day 36 from inoculum",380.3 mg
same,"DD0113 tumour weight, Mean","EDO40: EDO-S101 40 mg/kg q7dx3, day 40 from inoculum",433.4 mg
same,"DD0113 tumour weight, Mean","EDO40: EDO-S101 40 mg/kg q7dx3, day 43 from inoculum",451.3 mg
same,"DD0113 tumour weight, Mean","EDO40: EDO-S101 40 mg/kg q7dx3, day 47 from inoculum",507.4 mg
same,"DD0113 tumour weight, Mean","EDO40: EDO-S101 40 mg/kg q7dx3, day 50 from inoculum",570.5 mg
same,"DD0113 tumour weight, Mean","EDO40: EDO-S101 40 mg/kg q7dx3, day 54 from inoculum",599.5 mg
same,"DD0113 tumour weight, Mean","EDO40: EDO-S101 40 mg/kg q7dx3, day 58 from inoculum",584.1 mg
same,"DD0113 tumour weight, Mean","EDO40: EDO-S101 40 mg/kg q7dx3, day 62 from inoculum",677.9 mg
same,"DD0113 tumour weight, Mean","EDO40: EDO-S101 40 mg/kg q7dx3, day 65 from inoculum",677.8 mg
same,"DD0113 tumour weight, Mean","EDO40: EDO-S101 40 mg/kg q7dx3, day 69 from inoculum",703.2 mg
same,"DD0113 tumour weight, Mean","EDO40: EDO-S101 40 mg/kg q7dx3, day 72 from inoculum",669.8 mg
same,"DD0113 tumour weight, Mean","EDO40: EDO-S101 40 mg/kg q7dx3, day 75 from inoculum",666.1 mg
same,"DD0113 tumour weight, Mean","EDO40: EDO-S101 40 mg/kg q7dx3, day 79 from inoculum",756.8 mg
same,"DD0113 tumour weight, Mean","EDO40: EDO-S101 40 mg/kg q7dx3, day 83 from inoculum",683.9 mg
same,"DD0113 tumour weight, Mean","EDO40: EDO-S101 40 mg/kg q7dx3, day 87 from inoculum",935.9 mg
same,"DD0113 tumour weight, Mean","EDO40: EDO-S101 40 mg/kg q7dx3, day 90 from inoculum",1022.8 mg
same,"DD0113 tumour weight, Mean","EDO40: EDO-S101 40 mg/kg q7dx3, day 94 from inoculum",1226.5 mg
same,"DD0113 tumour weight, Mean","EDO40: EDO-S101 40 mg/kg q7dx3, day 98 from inoculum",1338.0 mg
same,"DD0113 tumour weight, Mean","EDO40: EDO-S101 40 mg/kg q7dx3, day 100 from inoculum",1553.1 mg
same,"DD0113 tumour weight, Mean","EDO60: EDO-S101 60 mg/kg q7dx3, day 23 from inoculum",199.2 mg
same,"DD0113 tumour weight, Mean","EDO60: EDO-S101 60 mg/kg q7dx3, day 26 from inoculum",272.5 mg
same,"DD0113 tumour weight, Mean","EDO60: EDO-S101 60 mg/kg q7dx3, day 29 from inoculum",310.4 mg
same,"DD0113 tumour weight, Mean","EDO60: EDO-S101 60 mg/kg q7dx3, day 33 from inoculum",373.1 mg
same,"DD0113 tumour weight, Mean","EDO60: EDO-S101 60 mg/kg q7dx3, day 36 from inoculum",334.2 mg
same,"DD0113 tumour weight, Mean","EDO60: EDO-S101 60 mg/kg q7dx3, day 40 from inoculum",371.2 mg
same,"DD0113 tumour weight, Mean","EDO60: EDO-S101 60 mg/kg q7dx3, day 43 from inoculum",339.5 mg
same,"DD0113 tumour weight, Mean","EDO60: EDO-S101 60 mg/kg q7dx3, day 47 from inoculum",330.2 mg
same,"DD0113 tumour weight, Mean","EDO60: EDO-S101 60 mg/kg q7dx3, day 50 from inoculum",310.9 mg
same,"DD0113 tumour weight, Mean","EDO60: EDO-S101 60 mg/kg q7dx3, day 54 from inoculum",321.1 mg
same,"DD0113 tumour weight, Mean","EDO60: EDO-S101 60 mg/kg q7dx3, day 58 from inoculum",303.3 mg
same,"DD0113 tumour weight, Mean","EDO60: EDO-S101 60 mg/kg q7dx3, day 62 from inoculum",298.3 mg
same,"DD0113 tumour weight, Mean","EDO60: EDO-S101 60 mg/kg q7dx3, day 65 from inoculum",291.6 mg
same,"DD0113 tumour weight, Mean","EDO60: EDO-S101 60 mg/kg q7dx3, day 69 from inoculum",334.6 mg
same,"DD0113 tumour weight, Mean","EDO60: EDO-S101 60 mg/kg q7dx3, day 72 from inoculum",423.7 mg
same,"DD0113 tumour weight, Mean","EDO60: EDO-S101 60 mg/kg q7dx3, day 75 from inoculum",432.9 mg
same,"DD0113 tumour weight, Mean","EDO60: EDO-S101 60 mg/kg q7dx3, day 79 from inoculum",475.7 mg
same,"DD0113 tumour weight, Mean","EDO60: EDO-S101 60 mg/kg q7dx3, day 83 from inoculum",376.9 mg
